Reference: patent US11452303B2, “Methods for feeding sows and for improving the health of young piglets” (PURINA ANIMAL NUTRITION LLC, priority 2003, dated 2022)
“And” between values parts separate entries of the source, which are not always exact repeats. Equal entries are not always repeated. Marks after values point to notes of the source that are not given here.

Assays:
nursing piglets = experiment: Litter performance: number of nursing piglets and piglet mortality in litters of lactating sows fed sorbitol; format: in vivo, swine
Experimental: (§1) In this example, sixty-two (62) lactating sows were subjected to one of three different feeding trials that each began shortly (within 48 hours) after the lactating sows gave birth to piglets (i.e.: shortly after farrowing) and extended to the day the different piglets were wearied from the respective sows. The purpose of this example was to evaluate the effect of feeding lactating sows varying amounts of sugar alcohol, or no sugar alcohol, on subsequent piglet litter performance parameters, such as mortality prior to weaning and litter weight gain during the pre-weaning period. Sorbitol was used as the sugar alcohol in this example.
Immediately after farrowing, twenty sows were randomly assigned to the Control, twenty-one sows were randomly assigned to Trial A, and twenty-one sows were randomly assigned to Trial B. Sow assignment did take into account parity (number of litters per sow) to artificially balance parity across the Control, Trial A, and Trial B. The different sows of the Control, Trial A, and Trial B had parities ranging from one to more than two. Additionally, litter size was equalized between the different sows of the Control, Trial A, and Trial B within forty-eight hours after farrowing to assure that all sows, whether assigned to the Control, Trial A or Trial B, had the same, or about the same, number of nursing piglets. The reason for waiting forty-eight hours before cross-fostering in this fashion was to assure each piglet received colostrum from their original dam.
(§2) In Trial A, each of the lactating sows received the control feed plus about twenty-six grams of sorbitol per day. In Trial B, each of the lactating sows received the control feed plus about fifty-two grams of sorbitol per day.
The lactating sows of both Trial A and Trial B received the same daily amount of control feed that was fed to the lactating sows of the Control with the exception that two pounds of the control feed provided daily to the lactating sows of both Trial A and Trial B were replaced with two pounds of a sorbitol-coated control feed (hereinafter referred to as “top-dressed control feed”). To create the top-dressed control feed, liquid sorbitol was heated to a temperature ranging from about 100° F. and about 120° F. The heated liquid sorbitol was then sprayed over a batch of about three hundred to four hundred pounds of the control feed and thoroughly mixed to form the top-dressed control feed. Following mixing, the top-dressed control feed was divided and separately bagged in two pound increments. An appropriate ratio of the liquid sorbitol to the control feed was selected for the top-dressed control feed destined for the Trial A lactating sows to assure that each two pound allotment of the control feed destined for the Trial A lactating sows included about twenty-six grams of sorbitol. Likewise, an appropriate ratio of the liquid sorbitol to the control feed was selected for the top-dressed control feed destined for the Trial B lactating sows to assure that each two pound allotment of the top-dressed control feed destined for the Trial B lactating sows included about fifty-two grams of sorbitol.
During the feeding trial of this example, the top dressed control feed was applied three times daily to the balance of the control feed being provided individually at that feeding to the individual lactating sows of Trial A and Trial B. Approximately one-third of the top-dressed control feed was provided to the sows in the morning feeding, approximately one-third of the top dressed control feed was provided to the lactating sows in the noon feeding, and the remaining approximate one-third of the top-dressed control feed was provided to the sows in the afternoon feeding. The twenty-one sows of Trial A each received a total of about two pounds of the top-dressed control feed containing about 26 grams of sorbitol per day. […]

[1] = Litter performance: total litter live weight and mean individual piglet weight; format: in vivo, swine
Experimental: In each of the Examples provided below, each piglet was weighed two days after birth, fourteen days after birth, and again at weaning. All data that is provided in Tables 4-9 below for the lactating sows is based upon individual data for each lactating sow, then-present, as least square means of the particular data over all lactating sows present in the test at the time the particular data was recorded. All data that is provided in Tables 4-9 below for the piglets is based upon data for each litter of piglets, then-present, as least square means of the particular data over all piglets of the litter present in the test at the time the particular data was recorded. Data for parameters presented in Tables 4-9 was analyzed using the general linear model (GLM) statistical procedure of SAS™ statistical analysis software for a randomized complete block design that included both the particular Iced regimen and the week of the test period in the model statement. The SAS™ statistical analysis software is available from SAS Institute, Inc. of Cary, N.C. Additionally, all data was analyzed to determine the mean of the data for each variable under consideration during the collection period for the particular data.
as §1, §2
Additionally, the collective body weights of the piglets assigned to each lactating sow of the three different trials were measured and recorded on day two post-farrowing (about forty-eight hours after farrowing), on day fourteen post-farrowing (fourteen days after farrowing), and on the day the piglets were weaned. The mean body weight values for each individual piglet of the three different trials were derived for each piglet individually from the weight data recorded for each piglet litter by dividing the collective litter weight determined for a particular litter by the total number of piglets then-present in the litter to attain the mean individual piglet weights on day two post-farrowing (about forty-eight hours after farrowing), on day fourteen post-farrowing (fourteen days after farrowing), and on the day the piglets were weaned.
In this example, the data from Example 1 was analyzed to remove data attributable to sows with a parity of only one. Parity refers to the number of litters a sow has previously given birth to during its life. Gilts or first-parity sows typically consume approximately fifteen to twenty percent less feed during lactation and also typically produce less milk than sows with parities greater than one. The litters of parity one sows also tend to have lower weaning weights and more health problems than the litters of sows with parities greater than one. The purpose of looking at the Example 1 data, as re-analyzed to remove the effect of parity one data, is to determine the influence of natural differences in feed intake and litter performance of parity one sows on the data presented in Example 1 above. Removing the data contributed by the […] parity one sows in Example 1, left the Control with fourteen sows of parity two or higher, left Trial A with sixteen sows of parity two or higher, and left Trial B with sixteen sows of parity two or higher. […]

[2] = Trial A, 26 grams sorbitol per day, Parity ≥ 1, At Weaning
[3] = Trial A, 26 grams sorbitol per day, Parity ≥ 1, Day 14
[4] = Trial A, 26 grams sorbitol per day, Parity ≥ 1, day one post-farrowing to weaning
[5] = Trial A, 26 grams sorbitol per day, Parity ≥ 1, day one to day fourteen post-farrowing
[6] = Trial A, 26 grams sorbitol per day, Parity ≥2, At Weaning
[7] = Trial A, 26 grams sorbitol per day, Parity ≥2, Day 2
[8] = Trial A, 26 grams sorbitol per day, Parity ≥2, Day 14
[9] = Trial A, 26 grams sorbitol per day, Parity ≥ 2, day one post-farrowing to weaning
[10] = Trial A, 26 grams sorbitol per day, Parity ≥ 2, day one to day fourteen post-farrowing
[11] = Trial B, 52 grams sorbitol per day, Parity ≥ 1, At Weaning
[12] = Trial B, 52 grams sorbitol per day, Parity ≥ 1, Day 14
[13] = Trial B, 52 grams sorbitol per day, Parity ≥ 1, day fourteen post-farrowing to weaning
[14] = Trial B, 52 grams sorbitol per day, Parity ≥ 1, day one post-farrowing to weaning
[15] = Trial B, 52 grams sorbitol per day, Parity ≥ 1, day one to day fourteen post-farrowing
[16] = Trial B, 52 grams sorbitol per day, Parity ≥2, At Weaning
[17] = Trial B, 52 grams sorbitol per day, Parity ≥2, Day 2
[18] = Trial B, 52 grams sorbitol per day, Parity ≥2, Day 14
[19] = Trial B, 52 grams sorbitol per day, Parity ≥ 2, day one post-farrowing to weaning
[20] = Trial B, 52 grams sorbitol per day, Parity ≥ 2, day one to day fourteen post-farrowing
[21] = Trial A, 26 grams sorbitol per day, Parity ≥ 1, Day 2
[22] = Trial B, 52 grams sorbitol per day, Parity ≥ 1, Day 2

In the case of `OC[C@@H](O)[C@@H](O)[C@H](O)[C@@H](O)CO` [sorbitol], the “Number of Nursing Piglets” value (nursing piglets; Trial A, 26 grams sorbitol per day to sows, Parity ≥ 1, Day 2) is reported as 10.57, the “Number of Nursing Piglets” value (nursing piglets; [2]) is reported as 9.95 and the “Percentage Piglet Mortality” value (nursing piglets; Trial A, 26 grams sorbitol per day, Parity ≥ 1, Day 1 to Day 14) is reported as 3.99% and 3.99^c percent. The “Percentage Piglet Mortality” value (nursing piglets; Trial A, 26 grams sorbitol per day, Parity ≥ 1, Day 1 to Weaning) was 5.69% and 5.69^c percent, the “Number of Nursing Piglets” value (nursing piglets; [3]) was 10.14 and the “Percentage Piglet Mortality” value (nursing piglets; Trial A, 26 grams sorbitol per day, Parity ≥ 1, Day 14 to weaning) was 1.74^d percent. The “piglet mortality drop versus Control” value (nursing piglets; [4]) was 47.07%, the “piglet mortality percentage drop versus Control” value (nursing piglets; [4]) was 5.06 percentage points and the “piglet mortality drop versus Control” value (nursing piglets; [5]) was 54.97%. The “piglet mortality percentage drop versus Control” value (nursing piglets; [5]) was 4.87 percentage points, the “Number of Nursing Piglets” value (nursing piglets; [6]) was 10.01 and the “Percentage Piglet Mortality” value (nursing piglets; Trial A, 26 grams sorbitol per day, Parity ≥2, Day 1 to Day 14) was 3.52% and 3.52^c percent. The “Percentage Piglet Mortality” value (nursing piglets; Trial A, 26 grams sorbitol per day, Parity ≥2, Day 1 to Weaning) was 4.69% and 4.69^c percent, the “Number of Nursing Piglets” value (nursing piglets; [7]) was 10.51 and the “Number of Nursing Piglets” value (nursing piglets; [8]) was 10.14. The “Percentage Piglet Mortality” value (nursing piglets; Trial A, 26 grams sorbitol per day, Parity ≥2, Day 14 to weaning) was 1.23%, the “piglet mortality drop versus Control” value (nursing piglets; [9]) was 63.27% and the “piglet mortality percentage drop versus Control” value (nursing piglets; [9]) was 8.08 percentage points. The “piglet mortality drop versus Control” value (nursing piglets; [10]) was 67.20%, the “piglet mortality percentage drop versus Control” value (nursing piglets; [10]) was 7.21 percentage points and the “Number of Nursing Piglets” value (nursing piglets; Trial B, 52 grams sorbitol per day to sows, Parity ≥ 1, Day 2) was 10.50. For the same molecule, the “Number of Nursing Piglets” value (nursing piglets; [11]) was 10.03, the “Percentage Piglet Mortality” value (nursing piglets; Trial B, 52 grams sorbitol per day, Parity ≥ 1, Day 1 to Day 14) was 4.61% and 4.61^e percent and the “Percentage Piglet Mortality” value (nursing piglets; Trial B, 52 grams sorbitol per day, Parity ≥ 1, Day 1 to Weaning) was 4.60% and 4.60^c percent. For the same molecule, the “Number of Nursing Piglets” value (nursing piglets; [12]) was 10.0, the “Percentage Piglet Mortality” value (nursing piglets; Trial B, 52 grams sorbitol per day, Parity ≥ 1, Day 14 to weaning) was 0.00% and 0.00^e percent and the “piglet mortality drop versus Control” value (nursing piglets; [13]) was 100%. For the same molecule, the “piglet mortality percentage drop versus Control” value (nursing piglets; [13]) was 2.09 percentage points, the “piglet mortality drop versus Control” value (nursing piglets; [14]) was 57.21% and the “piglet mortality percentage drop versus Control” value (nursing piglets; [14]) was 6.15 percentage points. For the same molecule, the “piglet mortality drop versus Control” value (nursing piglets; [15]) was 47.97%, the “piglet mortality percentage drop versus Control” value (nursing piglets; [15]) was 4.25 percentage points and the “Number of Nursing Piglets” value (nursing piglets; [16]) was 10.02. For the same molecule, the “Percentage Piglet Mortality” value (nursing piglets; Trial B, 52 grams sorbitol per day, Parity ≥2, Day 1 to Day 14) was 5.68% and 5.68^c percent, the “Percentage Piglet Mortality” value (nursing piglets; Trial B, 52 grams sorbitol per day, Parity ≥2, Day 1 to Weaning) was 5.71% and 5.71^c percent and the “Number of Nursing Piglets” value (nursing piglets; [17]) was 10.62. The “Number of Nursing Piglets” value (nursing piglets; [18]) was 10.02, the “Percentage Piglet Mortality” value (nursing piglets; Trial B, 52 grams sorbitol per day, Parity ≥2, Day 14 to weaning) was 0.00% and the “piglet mortality drop versus Control” value (nursing piglets; [19]) was 55.29%. The “piglet mortality percentage drop versus Control” value (nursing piglets; [19]) was 7.06 percentage points, the “piglet mortality drop versus Control” value (nursing piglets; [20]) was 47.06% and the “piglet mortality percentage drop versus Control” value (nursing piglets; [20]) was 5.05 percentage points. The “Mean Weight of Individual Piglets” value [1, 2] was 14.80 pounds, the “Total Live Weight of Litter” value [1, 2] was 147.53^de pounds and the “Mean Weight of Individual Piglets” value [1, 21] was 4.11 pounds. The “Total Live Weight of Litter” value [1, 21] was 43.29 pounds, the “Mean Weight of Individual Piglets” value [1, 3] was 10.59 pounds and the “Total Live Weight of Litter” value [1, 3] was 107.85 pounds. The “Mean Weight of Individual Piglets” value [1, 6] was 15.02 pounds, the “Total Live Weight of Litter” value [1, 6] was 150.42^bc pounds and the “Mean Weight of Individual Piglets” value [1, 7] was 4.14 pounds. The “Total Live Weight of Litter” value [1, 7] was 43.37 pounds, the “Mean Weight of Individual Piglets” value [1, 8] was 10.82 pounds and the “Total Live Weight of Litter” value [1, 8] was 109.76 pounds. The “Mean Weight of Individual Piglets” value [1, 11] was 15.55 pounds, the “Total Live Weight of Litter” value [1, 11] was 154.81 pounds and 154.81^e pounds and the “Mean Weight of Individual Piglets” value [1, 22] was 3.90 pounds. The “Total Live Weight of Litter” value [1, 22] was 41.17 pounds, the “Mean Weight of Individual Piglets” value [1, 12] was 10.39 pounds and the “Total Live Weight of Litter” value [1, 12] was 104.39 pounds. For the same molecule, the “Mean Weight of Individual Piglets” value [1, 16] was 16.03 pounds, the “Total Live Weight of Litter” value [1, 16] was 159.86 pounds and 159.86^c pounds and the “Mean Weight of Individual Piglets” value [1, 17] was 4.18 pounds. For the same molecule, the “Total Live Weight of Litter” value [1, 17] was 44.48 pounds, the “Mean Weight of Individual Piglets” value [1, 18] was 10.87 pounds and the “Total Live Weight of Litter” value [1, 18] was 109.25 pounds.
